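Briefly, cells in 96-well plates were exposed to five compound concentrations for 48 h, and endpoints were estimated by linear interpolation. The concentration for 50% growth inhibition is given as GI50. The concentration for full growth arrest is given as TGI.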 Where a SMILES comes first, the peptide text is derived from it. [ ]: non-standard residue; d: D form. The star is where a group is joined. ξ: configuration not given here. Propanoyl(3-(4-MeO-Ph)) = COc1ccc(CCC(=O)*)cc1; Thr(3ξ) = CC(O)[C@H](N)C(=O)O; dNMeL = CN[C@H](CC(C)C)C(=O)O; OBn = c1ccc(CO*)cc1; ξLac = CC(O)C(=O)O
How the values were obtained:
Assay in all cases: NCI-60 cell line screen, 48 h
SK-OV-3 ovarian = test system: SK-OV-3 ovarian
SF-268 CNS = test system: SF-268 CNS
SK-MEL-5 melanoma = test system: SK-MEL-5 melanoma
K-562 leukemia = test system: K-562 leukemia
HCT-116 colon = test system: HCT-116 colon
EKVX NSCLC = test system: EKVX NSCLC
SN12C renal = test system: SN12C renal
OVCAR-4 ovarian = test system: OVCAR-4 ovarian
TK-10 renal = test system: TK-10 renal
HT29 colon = test system: HT29 colon

SMILES	TGI (SK-OV-3 ovarian) [µM]	TGI (SF-268 CNS) [µM]	TGI (SK-MEL-5 melanoma) [µM]	TGI (K-562 leukemia) [µM]	TGI (HCT-116 colon) [µM]	TGI (EKVX NSCLC) [µM]	TGI (SN12C renal) [µM]	TGI (OVCAR-4 ovarian) [µM]	TGI (TK-10 renal) [µM]	TGI (HT29 colon) [µM]	GI50 (SK-OV-3 ovarian) [µM]	GI50 (SF-268 CNS) [µM]	GI50 (SK-MEL-5 melanoma) [µM]	GI50 (K-562 leukemia) [µM]	GI50 (HCT-116 colon) [µM]	GI50 (EKVX NSCLC) [µM]	GI50 (SN12C renal) [µM]	GI50 (OVCAR-4 ovarian) [µM]	GI50 (TK-10 renal) [µM]	GI50 (HT29 colon) [µM]
O=c1[nH]c2ccc(CC(=S)N3CCN(c4ccccc4)CC3)cc2o1	> 100	> 100	> 100	> 100	> 100	> 100	> 100	> 100	> 100	> 100										
O=C(/C=C\Nc1ccccc1O)C(Cl)(Cl)Cl	> 100	> 100	> 100	> 100	> 100	> 100	> 100	> 100	> 100	> 100										
COc1cc(C2SCC(=O)N2c2ccc(Cl)cc2)cc(I)c1O (stereo not given)	> 100	> 100	> 100	> 100	> 100	> 100	> 100	> 67.5	> 100	> 100										
COc1ccccc1N=N/C(=N/NC(=O)c1ccc(C)cc1)c1ccc(N(CCC#N)CCC#N)cc1OC	> 100	77.8	> 100	> 100	59.9	69.2	72.4	> 100	> 100	85.4										
O=C(/C=C/c1cccs1)c1cccc(C(=O)/C=C/c2cccs2)n1	> 100	> 68.5	> 100	> 100	11.3	> 100	> 58.8	> 100	> 100	> 34.1										
CC1=C(C(=O)Nc2ccccc2)C(c2ccc(C)o2)C(C#N)=C(SCc2ccccc2)N1 (stereo not given)	> 100	> 100	> 100	> 100	> 100	> 100	> 100	> 100	> 100	> 100										
Cc1ccc2cccc3c2c1CC1(C3=O)S(=O)(=O)OCCOS1(=O)=O	> 100	> 100	> 100	> 100	> 100	> 100	> 100	> 100	> 100	> 100										
COc1ccc(CCC(=O)OC(C)[C@H](NC(=O)[C@@H](CC(C)C)N(C)C(=O)[C@@H]2CCCN2C(=O)C(C)O)C(=O)OCc2ccccc2)cc1 (stereo not given in full) (H-[ξLac]P[dNMeL][Thr(3ξ)](Propanoyl(3-(4-MeO-Ph)))-OBn)	> 100	99.5	28.8	74.5	> 100	> 100	> 100	> 100	> 100	> 100										
OCCN=C1c2ccccc2C2C(c3ccccc31)C1c3ccccc3C(=NCCO)c3ccccc3C21 (stereo not given)	61.5	> 100	35.2	40.2	30.3	> 100	55.8	60.2	79.5	34.8										
C/C(=N\O)c1cccc(Nc2nc3ccccc3c3occc23)c1	28.7	27.6	27	70.5	25.8	25.6	33.6	30.2	27.6	15.6										
Clc1ccc2c(NCCNc3ccnc4cc(Cl)ccc34)ccnc2c1	31.5	70.6	38.1	28.2	33.1	41.4	33.4	35.5	34.6	29.5										
CC(NC(=O)C(N)CC(=O)O)NC(=O)N1CCOCC1 (stereo not given)	> 100	> 100	> 100	> 100	> 100	> 100	> 100	> 100	> 100	> 100										
CC(C)CC1[C@@H](OCc2ccccc2)COS(=O)(=O)N1Cc1ccccc1 (stereo not given in full)	> 100	> 100	> 100	> 100	> 100	> 100	> 100	> 100	> 100	> 100										
COc1ccc(CCc2ccc(O)c(C(=O)O)c2)cc1OC	> 100	> 100	> 100	> 100	> 100	> 100	> 100	> 100	> 100	> 100										
O=S(=O)(O)c1ccc2c(N=Nc3ccccc3Cl)c(O)ccc2c1	> 100	> 100	> 100	> 100	> 100	> 100	> 100	> 100	> 100	> 100										
CSc1ccc(/C=C2\N=C(c3ccccc3)N(c3nc4c(Cl)cc(Cl)cc4s3)C2=O)cc1	84.9	86.3	34.9	> 100	41.5	49.9	56.3	58.4	> 100	46.4										
O=C(N/N=C\c1ccc([N+](=O)[O-])cc1)Nc1cccc2ccccc12	39	> 55.5	> 100	> 100	> 52.2	> 100	> 100	> 100	63.6	> 100										
CC1(C)C(=O)C2(OS(=O)(=O)C(F)(F)F)CCC1C2 (stereo not given)	> 100	> 100	> 100	> 100	> 100	> 100	> 100	> 100	> 100	> 100										
NCCCc1c(-c2ccccc2)nc(N)[nH]c1=O	> 100	> 100	> 100	> 100	> 100	> 100	> 100	> 100	> 100	> 100										

SMILES	TGI (SK-OV-3 ovarian) [µM]	TGI (SF-268 CNS) [µM]	TGI (SK-MEL-5 melanoma) [µM]	TGI (K-562 leukemia) [µM]	TGI (HCT-116 colon) [µM]	TGI (EKVX NSCLC) [µM]	TGI (SN12C renal) [µM]	TGI (OVCAR-4 ovarian) [µM]	TGI (TK-10 renal) [µM]	TGI (HT29 colon) [µM]	GI50 (SK-OV-3 ovarian) [µM]	GI50 (SF-268 CNS) [µM]	GI50 (SK-MEL-5 melanoma) [µM]	GI50 (K-562 leukemia) [µM]	GI50 (HCT-116 colon) [µM]	GI50 (EKVX NSCLC) [µM]	GI50 (SN12C renal) [µM]	GI50 (OVCAR-4 ovarian) [µM]	GI50 (TK-10 renal) [µM]	GI50 (HT29 colon) [µM]
Oc1ccc2ccccc2c1N=Nc1ccccn1	> 100	> 100	15.6	> 100	2.77	43.4	> 100	3.87	> 86.2	> 100	1.14	0.554	2.75	0.6	0.277	0.449	1.46	0.408	1.53	0.523
CCOC(=O)COc1c(OC)cc(C2C3=C(COC3=O)Oc3cc4c(cc32)OCO4)cc1OC (stereo not given)	> 57.5	> 100	13.8	12.2	> 100	> 100	> 73	24.9	20.9	8.29										
N#CC(N=Nc1ccccc1)c1nc2ccccc2o1 (stereo not given)	68	59.9	> 100	> 100	57.5	> 100	> 100	37.9	58.3	> 100										
CC1(C)N=C(/C=N/O)C(C)(C)N1O	> 100	> 100	> 100	> 100	> 100	> 100	> 100	> 100	> 100	> 100										
Cc1ccc(/C=N/NC2=NCCN2)s1	> 100	> 100	> 100	> 100	> 100	> 100	> 100	> 100	> 100	> 100										
O=C(O)c1cc(O)c2c(c1)Cc1cccc(O)c1C2=O	> 100	56.6	40	> 100	67.1	80	33.9	> 100	> 100	> 100										
COC1(OC)C2(Cl)C(Cl)=C(Cl)C1(Cl)C1COCC12 (stereo not given)	> 100	> 100	> 100	> 100	> 100	> 100	> 100	> 100	> 72.3	> 100										
CCOP(=O)(OCC)/C(C#N)=C/c1cccn1N(C)C	> 100	> 100	> 100	> 100	> 100	> 100	> 100	> 100	> 100	> 100										
Cc1ccc(O)c(-c2csc(NCN3CCN(CNc4nc(-c5cc(C)ccc5O)cs4)CC3)n2)c1	> 100	> 100	> 100	> 100	> 100	> 100	> 100	> 100	> 100	> 100										
O=C1CC(c2ccc[nH]2)=NN1c1ccccc1	> 100	> 100	> 100	> 100	> 100	> 100	> 100	> 100	> 100	> 100										
O[C@H]1[C@H](O)[C@H](O)CN2CCC[C@@H](O)[C@H]12	> 100	> 100	> 100	> 100	> 100	> 100	> 100	> 100	> 100	> 100										
CCc1n[nH]c(=O)n1NC(=O)c1ccccc1C(=O)O	> 100	> 100	> 100	> 100	> 100	> 100	> 100	> 100	> 100	> 100										
CC(C)NC(=O)OCc1c(COC(=O)NC(C)C)c(-c2ccc[n+](COC(=O)C3CC3)c2)n2c1CCC2	> 100	> 100	> 100	> 100	> 100	> 100	> 100	> 100	> 100	> 100										
COC(=O)[C@H](Cc1ccccc1)NP(=O)(O)OCC1OC(n2cc(C)c(=O)[nH]c2=O)CC1N=[N+]=[N-] (stereo not given in full)	> 100	> 100	> 100	> 100	> 100	> 100	> 100	> 100	> 100	> 100										
O=C(CCc1ccccc1CO)NCCc1ccccc1	> 100	> 100	> 100	> 100	> 100	> 100	> 100	> 100	> 100	> 100										
CCN(CC)CCSc1nc2c(c(=N)n1-c1ccccc1)c(=S)n(-c1ccccc1)c(=S)n2-c1ccccc1	15.5	3.9	11.4	2.5	4.69	7.31	3.29	7.87	3.17	3.37										
COc1cc2c(cc1OC)C(Cc1ccccc1CCCl)=NCC2	> 100	> 100	54.3	> 100	> 100	> 100	> 100	> 100	> 100	> 100										
COc1cc(C(=O)Nc2c3ccccc3nc3ccccc23)cc(OC)c1OC	> 100	> 82	> 100	> 100	> 100	> 100	> 100	> 100	> 100	> 100										
